{
  "source": "paper PMC6408518",
  "about": "“Structure guided design of an antibacterial peptide that targets UDP-N-acetylglucosamine acyltransferase” (Scientific Reports, 2019)",
  "note": "Where “and” joins values, the source holds several entries; their conditions need not be identical. Equal values may be shown once. Where a SMILES comes first, the peptide text is derived from it. Where no end group is shown, it is not given here.",
  "data": [
    {"target": "T1, E. coli LpxA (Escherichia coli, UniProt P0A722)", "T1 sequence (P0A722 whole entry)": "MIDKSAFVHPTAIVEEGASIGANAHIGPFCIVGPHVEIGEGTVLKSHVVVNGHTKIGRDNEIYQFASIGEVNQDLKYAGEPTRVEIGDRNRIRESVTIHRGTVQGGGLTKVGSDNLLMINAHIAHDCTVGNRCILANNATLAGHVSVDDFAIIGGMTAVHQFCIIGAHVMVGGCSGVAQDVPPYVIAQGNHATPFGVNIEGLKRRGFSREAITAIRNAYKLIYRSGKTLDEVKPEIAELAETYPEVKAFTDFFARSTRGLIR", "assay": "not given", "conditions": "previous enzymatic evidence; cited from earlier work", "values": [
      {"compound": "SSGWMLDPIAGKWSR [Peptide 920]", "Mode of inhibition": "largely competitive with respect to ACP"}
    ]},
    {"tested_on": "E. coli", "assay": "not given", "conditions": "peptide expressed fused to GST in E. coli; cited from earlier work", "values": [
      {"compound": "SSGWMLDPIAGKWSR [Peptide 920]", "Bacterial growth": "inhibited bacterial growth"}
    ]},
    {"target": "T1, E. coli LpxA", "assay": "LpxA acyltransferase inhibition assay ([α-32P]UDP-GlcNAc conversion, TLC)", "format": "biochemical", "set-up": "made in house; host or cells: E. coli BL21(DE3)/pLysE/pTO1", "conditions": "1 µM UDP-GlcNAc, 1 µM R-3-hydroxymyristoyl-ACP, 1 nM LpxA, 30 °C, 10% DMSO; SD of triplicates", "procedure": "The peptides were assayed for acyl transferase inhibitory activity under conditions where the concentrations of UDP-GlcNAc and R-3-hydroxymyristoyl-ACP were 1 µM each. […] Peptide CR21 and CR23 still have good inhibitory potential of 10 μM albeit lower than peptide CR20.\nThe LpxA enzymatic reaction monitors the conversion of [α-^32P]UDP-GlcNAc to [α-^32P]UDP-3-O-(R-3-hydroxymyristoyl)- GlcNAc. The assay components consist of 40 mM HEPES buffer, pH 8, 1 mg/ml BSA, 1 μM R-3-hydroxymyristoyl-ACP, and 1 μM [α-^32P]UDP-GlcNAc (2 × 10^6 cpm/nmol). […] The final concentration of DMSO was adjusted to 10% to match the peptide solvent in all enzymatic assays.\nThe reactions were started by the addition of 1 nM of LpxA and incubated at 30 °C for a maximum of 10 min. Three or four time points were collected during this time. Termination of the reaction was accomplished by the addition of 1 μl portions onto a silica thin layer chromatography (TLC) plate. The TLC plates were air dried for 10 min before developing in chloroform/methanol/water/acetic acid (25:15:4:2, v/v). Plates were exposed to PhosphorImager screens overnight, and the data were evaluated with Molecular Dynamics PhosphorImager equipped with ImageQuant software. […] To determine the IC50 at 30 °C, the data were fit to the following equations,1 vi/vc=IC50/(I+IC50) or1a %activity=100/(1+I/IC50) vi represents the initial rate, at given concentrations of inhibitor, vc represents the initial velocity of the control reaction without inhibitor, and I represents the inhibitor concentration. The IC50 determination represents the concentration of inhibitor needed to inhibit 50% of the enzyme activity.", "values": [
      {"compound": "CSCC[C@H](NC(=O)[C@@H](N)Cc1c[nH]c2ccccc12)C(=O)N[C@@H](CC(C)C)C(=O)N[C@@H](CC(=O)O)C(=O)O", "note": "[CR26, WMLD] (H-WMLD-OH)", "IC50": "> 100 µM"},
      {"compound": "GWMLDPIA [CR24]", "IC50": "> 100 µM"},
      {"compound": "GWMLDPIAGKW [CR23]", "IC50": "10 ± 0.3 µM"},
      {"compound": "GWMLDPIAGKWSR [CR19]", "IC50": "0.077 ± 0.003 µM"},
      {"compound": "SSGWMLDPIAGKW [CR22]", "IC50": "9 ± 2.2 µM"},
      {"compound": "SSGWMLDPIAGKWS [CR21]", "IC50": "12 ± 1.4 µM"},
      {"compound": "WMLDPI [CR25, WMLDPI]", "IC50": "> 100 µM"},
      {"compound": "WMLDPIAGKWSR [CR20]", "IC50": "~0.05 µM and 0.05 µM"}
    ]}
  ]
}
